Reference: patent US9562042B2, “α-oxoacyl amino-caprolactam” (Seikagaku Corporation, priority 2013, dated 2017)

Legend:
cathepsin K = assay: Measurement of cathepsin K inhibitory activity (decomposition of fluorescent substrate Z-Gly-Pro-Arg-MCA); assay type: biochemical
Protocol: Cathepsin K was prepared as follows. […] Specifically, the decomposition of 20 μM Z-Gly-Pro-Arg-MCA by cathepsin K was measured in 100 mM potassium sodium phosphate, 1 mM EDTA, 8 mM Cysteine, pH 6.0. The reaction was performed at 37° C. for 30 minutes and then quenched by the addition of 2×10^−5 M of calpeptin.

CYP3A4 = CYP3A4 (Homo sapiens, UniProt P08684); assay: Measurement of CYP3A4 inhibitory activity (midazolam 1'-hydroxylation in human hepatic microsomes, DI and MBI); assay type: in vitro ADME; conditions: human hepatic (liver) microsomes, probe midazolam (1'-hydroxylation), inventive compounds (Table 4); for IC50 at 10 min: direct inhibition, midazolam, 37° C. 10 minutes, read-out: CYP3A inhibitory IC50 (μmol/L) DI; for IC50: mechanism based inhibition, pre-incubated 37° C. 30 minutes before midazolam, read-out: CYP3A inhibitory IC50 (μmol/L) MBI
Protocol: The measurement of CYP3A4 inhibitory activity was performed with reference to the method of Newton et al. (Drug Metab. Dispos. 23, 154-158 (1995)) and the method described in JP 2007-236327 A.
A reaction mixture was prepared by mixing the compound of the present invention with midazolam as a typical substrate for CYP3A4 (see Food and Drug Administration (FDA) Guidance for Industry Drug Interaction Studies—Study Design, Data Analysis, Implications for Dosing, and Labeling Recommendations. FDA web site [online], www.fda.gov/downloads/drugs/guidancecomplianceregulatoryinformation/guidances/ucm292362.pdf), coenzyme NADPH-generating system, human hepatic microsomes, and a phosphate buffer. The reaction mixture was incubated at 37° C. for 10 minutes.
The coenzyme NADPH-generating system solution was prepared by mixing the materials shown in Table 1: the 13 mmol/L β-NADP^+ solution, the 33 mmol/L G-6-P solution, the solution of 10 U/mL G6PDH (Y) (manufactured by Oriental Yeast Co., Ltd.), and the 33 mmol/L MgCl2 solution in a ratio of 1:1:0.4:1 (v:v:v:v). […] The final concentrations of the compounds of the present invention and the comparative compounds were set at the levels considered to be necessary for the calculation of the IC50 values based on the results of the measurement performed at an arbitrary concentration in advance.
After the incubation, the reaction was quenched by the addition of an acetonitrile solution to the reaction mixture. The amount of 1′-hydroxymidazolam produced (the metabolite produced from midazolam by CYP3A4) was measured in the quenched sample with a high-performance liquid chromatography tandem mass spectrometer (LC-MS/MS). Each IC50 value for DI (direct inhibition) was determined from the amount of the produced 1′-hydroxymidazolam and the final concentration of the compound of the present invention or the comparative compound in the reaction mixture.
MBI (mechanism based inhibition) was evaluated as follows. After the reaction mixture not containing midazolam (but containing the compound of the present invention or the comparative compound, the coenzyme NADPH-generating system, the human hepatic microsomes, and the phosphate buffer) was pre-incubated at 37° C. for 30 minutes, midazolam was added to the reaction mixture. The reaction mixture was then incubated at 37° C. for 10 minutes. Subsequently, the reaction was quenched by the addition of an acetonitrile solution to the reaction mixture. The amount of 1′-hydroxymidazolam produced was measured in the quenched sample with an LC-MS/MS. As in the case of DI, each IC50 value for MBI was determined from the amount of the produced 1′-hydroxymidazolam and the final concentration of the compound of the present invention or the comparative compound in the reaction mixture.

Chain of CYP3A4 (P08684 2-503): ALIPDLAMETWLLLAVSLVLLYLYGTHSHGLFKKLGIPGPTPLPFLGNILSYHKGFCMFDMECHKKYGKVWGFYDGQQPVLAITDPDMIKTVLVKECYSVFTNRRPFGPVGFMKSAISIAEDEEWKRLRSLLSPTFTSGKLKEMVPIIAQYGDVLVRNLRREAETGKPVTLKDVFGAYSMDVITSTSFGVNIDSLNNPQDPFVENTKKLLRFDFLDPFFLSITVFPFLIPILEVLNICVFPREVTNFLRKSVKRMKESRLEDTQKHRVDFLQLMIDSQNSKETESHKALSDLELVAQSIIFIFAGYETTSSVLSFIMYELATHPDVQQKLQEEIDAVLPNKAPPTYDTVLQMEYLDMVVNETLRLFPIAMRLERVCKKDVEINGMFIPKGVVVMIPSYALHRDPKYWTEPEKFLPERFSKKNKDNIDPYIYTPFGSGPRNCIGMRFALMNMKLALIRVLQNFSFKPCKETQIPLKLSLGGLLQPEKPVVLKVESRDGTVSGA

CYP/CatK (cathepsin K)	IC50 at 10 min (CYP3A4) [µmol/L]	IC50 (CYP3A4) [µmol/L]	Structure (SMILES)
52214	101	73.1	CC(C)[C@H](NC(=O)C1(NC(=O)N2CCCC2)CCCCC1)C(=O)C(=O)N[C@H]1CCCCNC1=O [Compound 2]
56555	43.5	44.4	CC(C)[C@H](NC(=O)C1(NC(=O)N2CCSC2)CCCCC1)C(=O)C(=O)N[C@H]1CCCCNC1=O [Compound 1]
40294	208	137	CC(C)[C@H](NC(=O)C1(NC(=O)[C@H]2CCCO2)CCCCC1)C(=O)C(=O)N[C@H]1CCCCNC1=O [Compound 3]
